Assay results taken from patent publication US20230278993A1, “NOVEL TRICYCLIC AROMATIC HETEROCYCLIC COMPOUND AND PREPARATION METHOD THEREFOR, PHARMACEUTICAL COMPOSITION AND USE THEREOF” (SHANGHAI LONGWOOD BIOPHARMACEUTICALS CO., LTD., priority 2020, published 2023).

biological target: PD-1/PD-L1 (Homo sapiens (Human), UniProt Q9NZQ7); experiment: PD-1/PD-L1 homogeneous time-resolved fluorescence (HTRF) binding assay; details: recombinant human PD-L1 (19-238) His-tagged, human PD-1 (25-167) Fc tag; 25° C., PBS pH 7.4
Sequence (Q9NZQ7 19-238): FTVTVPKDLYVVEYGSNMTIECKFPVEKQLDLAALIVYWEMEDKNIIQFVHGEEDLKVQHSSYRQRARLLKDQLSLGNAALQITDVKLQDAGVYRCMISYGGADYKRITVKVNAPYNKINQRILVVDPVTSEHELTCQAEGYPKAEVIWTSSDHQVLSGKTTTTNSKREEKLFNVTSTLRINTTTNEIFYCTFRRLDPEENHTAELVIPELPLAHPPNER
Method: Example A: PD-1/PD-L1 Homogeneous Time-Resolved Fluorescence (HTRF) Binding Assay
Assays were performed in standard black 384-well polystyrene plates and a final volume was 20 μL. The inhibitor was first serially diluted with DMSO and added to the wells of the plate, followed by the addition of other reaction components. The final concentration of DMSO in the assay was 1%. Assays were performed at 25° C. in PBS buffer (pH 7.4) containing 0.05% Tween-20 and 0.1% BSA. Recombinant human PD-L1 protein (19-238) with a His-tagged at the C-terminus was purchased from AcroBiosystems (PD1-H5229). Recombinant human PD-1 protein (25-167) with an Fc tag at the C-terminus was also purchased from AcroBiosystems (PD1-H5257). The PD-L1 and PD-1 proteins were diluted in assay buffer and then […] of the solution was extracted and added to the wells of the plate. Plates were centrifuged and proteins and inhibitors were preincubated for 40 minutes. After incubation, […] of HTRF detection buffer containing europium […] labeled anti-human IgG (PerkinElmer-AD0212), Fc-specific and anti-His SureLight@-Allophycocyanin (APC, PerkinElmer-AD0059H) conjugated antibodies was added. After centrifugation, the plates were incubated at 25° C. for 60 minutes. Data was read in a PHERAstar FS plate reader (665 nm/620 nm ratio). Final concentrations in the assay were ˜3 nM of PD1, 10 nM of PD-L1, 1 nM of europium anti-human IgG, and 20 nM of anti-His-allophycocyanin. Activity data were fitted using GraphPad Prism 5.0 software to derive IC50 values for inhibitors.
The IC50 values of the compounds exemplified in the examples are expressed in the following manner: IC50: +: ≤100 nM; ++: 100 nM˜1000 nM; +++: >1000 nM. The data of the example compounds obtained using the PD-1/PD-L1 homogeneous time-resolved fluorescence (HTRF) binding assay described in Example A were provided in Table 1.

Structure (SMILES) | IC50
O=C(O)[C@@H]1CCN([C@@H]2CCc3c2cc2cc(-c4cccc(-c5ccccc5)c4Cl)oc2c3F)C1 [Compound 005] | ≤ 100 nM
Cc1c(-c2ccc3c(c2)OCCO3)cccc1-c1cc2cc3c(c(C#N)c2o1)CC[C@H]3N1CC[C@@H](C(=O)O)C1 [Compound 013] | ≤ 100 nM
N#Cc1c2c(cc3nc(-c4cccc(-c5ccc6c(c5)OCCO6)c4Cl)oc13)[C@H](N1CC[C@@H](C(=O)NS(=O)(=O)C3CC3)C1)CC2 [Compound 025] | ≤ 100 nM
N#Cc1c2c(cc3nc(-c4cccc(-c5ccc6c(c5)OCCO6)c4Cl)oc13)[C@@H](N1CC[C@@H](C(=O)O)C1)CC2 [Compound 026] | ≤ 100 nM
Cc1c(-c2ccc3c(c2)OCCO3)cccc1-c1nc2cc3c(c(C#N)c2o1)CC[C@H]3N1CC[C@@H](C(=O)O)C1 [Compound 047] | ≤ 100 nM
Cc1c(-c2ccc3c(c2)OCCO3)cccc1-c1nc2cc3c(c(C#N)c2o1)CC[C@H]3NCCC(=O)O [Compound 049] | ≤ 100 nM
N#Cc1c2c(cc3nc(-c4cccc(-c5ccc6c(c5)OCCO6)c4Cl)oc13)[C@H](NCCC(=O)O)CC2 [Compound 050] | ≤ 100 nM
